Reference: patent EP2951180B1, “2,6,7,8 SUBSTITUTED PURINES AS HDM2 INHIBITORS” (Merck Sharp & Dohme Corp., priority 2013, dated 2014)

These compounds were tested against T1, HDM2 (Homo sapiens, UniProt Q00987) (assay: HDM2 FRET assay (inhibition of binding of FITC labeled p53-pocket peptide to HDM2)). Conditions: Table 11; read-out: FRET IC50.
T1 construct: Thioredoxin (N); made in house; host or cells: E. coli strain BL21(DE3)Rosetta
T1 sequence (Q00987 17-125): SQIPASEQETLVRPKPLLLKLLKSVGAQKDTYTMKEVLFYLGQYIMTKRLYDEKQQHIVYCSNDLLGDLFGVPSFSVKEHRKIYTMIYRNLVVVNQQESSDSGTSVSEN
Procedure, shortened: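 TR-FRET with 0.5 nM His-tagged recombinant HDM2, 3 nM FITC-labelled p53 peptide and 0.25 nM Tb-anti-His antibody in PBS, 0.01% BSA, 0.01% Tween-20, 0.1% DMSO. IC50 from em520/em495 ratio over 10-point dilutions, 4-parameter logistic fit.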
In the case of `C[C@@H](Nc1nc(-c2noc(=O)[nH]2)nc2nc(N3CCCC3C3CCC3)n(C[C@H]3CC[C@H](C)CC3)c12)C1CCC1` (stereo partly drawn) [Example 11.38, 3-(6-{[(1R)-1-cyclobutylethyl]amino}-8-(2-cyclobutylpyrrolidin-1-yl)-7-[(trans-4-methylcyclohexyl)methyl]-7H-purin-2-yl)-1,2,4-oxadiazol-5(2H)-one], the IC50 is reported as 4.86 nM.
`COCC1CCCCN1c1nc2nc(-c3noc(=O)[nH]3)nc(N[C@H](C)C3CCC3)c2n1C[C@H]1CC[C@H](C)CC1` (stereo partly drawn) [Example 11.39, 3-(6-{[(1R)-1-cyclobutylethyl]amino}-8-[2-(methoxymethyl)piperidin-1-yl]-7-[(trans-4-methylcyclohexyl)methyl]-7H-purin-2-yl)-1,2,4-oxadiazol-5(2H)-one] showed an IC50 of 9.71 nM.
`C[C@@H](Nc1nc(-c2noc(=O)[nH]2)nc2nc(N3CCCCC3CF)n(C[C@H]3CC[C@H](C)CC3)c12)C1CCC1` (stereo partly drawn) [Example 11.40, 3-(6-{[(1R)-1-cyclobutylethyl]amino}-8-[2-(fluoromethyl)piperidin-1-yl]-7-[(trans-4-methylcyclohexyl)methyl]-7H-purin-2-yl)-1,2,4-oxadiazol-5(2H)-one] showed an IC50 of 8.52 nM.
`CC(C)CC1COCCN1c1nc2nc(-c3noc(=O)[nH]3)nc(N[C@H](C)C3CCC3)c2n1C[C@H]1CC[C@H](C)CC1` (stereo partly drawn) [Example 11.41, 3-(6-{[(1R)-1-cyclobutylethyl]amino}-7-[(trans-4-methylcyclohexyl)methyl]-8-[3-(2-methylpropyl)morpholin-4-yl]-7H-purin-2-yl)-1,2,4-oxadiazol-5(2H)-one] was tested, and the IC50 was 14.7 nM.
For `C[C@@H](Nc1nc(-c2noc(=O)[nH]2)nc2nc(N(C)CC3CC3)n(C[C@H]3CC[C@H](C)CC3)c12)C1CCC1` [Example 11.42, 3-(6-{[(1R)-1-cyclobutylethyl]amino}-8-[(cyclopropylmethyl) (methyl)amino]-7-[(trans-4-methylcyclohexyl)methyl]-7H-purin-2-yl)-1,2,4-oxadiazol-5(2H)-one], the IC50 was 5.34 nM.
In the case of `C[C@@H](Nc1nc(-c2noc(=O)[nH]2)nc2nc(N(C)CC(C)(C)C)n(C[C@H]3CC[C@H](C)CC3)c12)C1CCC1` [Example 11.43, 3-(6-{[(1R)-1-cyclobutylethyl]amino}-8-[(2,2-dimethylpropyl)(methyl)amino]-7-[(trans-4-methylcyclohexyl)methyl]-7H-purin-2-yl)-1,2,4-oxadiazol-5(2H)-one], the IC50 is reported as 19.4 nM.
Work on `CCCN(C)c1nc2nc(-c3noc(=O)[nH]3)nc(N[C@H](C)C3CCC3)c2n1C[C@H]1CC[C@H](C)CC1` [Example 11.44, 3-(6-{[(1R)-1-cyclobutylethyl]amino}-7-[(trans-4-methylcyclohexyl)methyl]-8-[methyl(propyl)amino]-7H-purin-2-yl)-1,2,4-oxadiazol-5(2H)-one] yielded an IC50 of 9.97 nM.
With `C[C@@H](Nc1nc(-c2noc(=O)[nH]2)nc2nc(N3CCCCC3Cc3ccccc3)n(C[C@H]3CC[C@H](C)CC3)c12)C1CCC1` (stereo partly drawn) [Example 11.45, 3-{8-(2-benzylpiperidin-1-yl)-6-{[(1R)-1-cyclobutylethyl]amino}-7-[(trans-4-methylcyclohexyl)methyl]-7H-purin-2-yl}-1,2,4-oxadiazol-5(2H)-one] the IC50 was 81.9 nM.
In the case of `CC(C)C1CCCN1c1nc2nc(-c3noc(=O)[nH]3)nc(N[C@H](C)C3CCC3)c2n1C[C@H]1CC[C@H](C)CC1` (stereo partly drawn) [Example 11.46, 3-(6-{[(1R)-1-cyclobutylethyl]amino}-7-[(trans-4-methylcyclohexyl)methyl]-8-[2-(1-methylethyl)pyrrolidin-1-yl]-7H-purin-2-yl)-1,2,4-oxadiazol-5(2H)-one], the IC50 is reported as 4.46 nM.
`CC1CCCCN1c1nc2nc(-c3noc(=O)[nH]3)nc(N[C@H](C)C3CCC3)c2n1C[C@H]1CC[C@H](C)CC1` (stereo partly drawn) [Example 11.47, 3-[6-{[(1R)-1-cyclobutylethyl]amino}-7-[(trans-4-methylcyclohexyl)methyl]-8-(2-methylpiperidin-1-yl)-7H-purin-2-yl]-1,2,4-oxadiazol-5(4H)-one] gave an IC50 of 7.27 nM.
In the case of `CC(C)CN(C)c1nc2nc(-c3noc(=O)[nH]3)nc(N[C@H](C)C3CCC3)c2n1C[C@H]1CC[C@H](C)CC1` [Example 11.48, 3-(6-{[(1R)-1-cyclobutylethyl]amino}-7-[(trans-4-methylcyclohexyl)methyl]-8-[methyl(2-methylpropyl)amino] -7H-purin-2-yl)-1,2,4-oxadiazol-5(4H)-one], the IC50 is reported as 6.71 nM.
For `C[C@@H](Nc1nc(C(=O)O)nc2nc(N3CCOC[C@H]3c3ccccc3)n(C[C@H]3CC[C@H](C)CC3)c12)C(F)(F)F` [Example 11.51, 7-[(trans-4-methylcyclohexyl)methyl]-8-[(3R)-3-phenylmorpholin-4-yl]-6-{[(1R)-2,2,2-trifluoro-1-methylethyl]amino}-7H-purine-2-carboxylic acid], the IC50 was 2.26 nM.
`CCC1CCCCN1c1nc2nc(C(=O)O)nc(N[C@H](C)C3CCC3)c2n1C[C@H]1CC[C@H](C)CC1` (stereo partly drawn) [Example 11.52, 6-{[(1R)-1-cyclobutylethyl]amino}-8-(2-ethylpiperidin-1-yl)-7-[(trans-4-methylcyclohexyl)methyl]-7H-purine-2-carboxylic acid] showed an IC50 of 3.43 nM.
Compound `C[C@@H](Nc1nc(-c2noc(=O)[nH]2)nc2nc(N3CCOC[C@H]3c3ccccc3)n(C[C@H]3CC[C@H](C)CC3)c12)C(F)(F)F` [Example 11.53, 3-(7-[(trans-4-methylcyclohexyl)methyl]-8-[(3R)-3-phenylmorpholin-4-yl]-6-{[(1R)-2,2,2-trifluoro-1-methylethyl]amino}-7H-purin-2-yl)-1,2,4-oxadiazol-5(4H)-one] has an IC50 of 4.68 nM.
`CC(C)C1CCCCN1c1nc2nc(C(=O)O)nc(N[C@H](C)C3CCC3)c2n1C[C@H]1CC[C@H](C)CC1` (stereo partly drawn) [Example 11.54, 6-{[(1R)-1-cyclobutylethyl]amino}-7-[(trans-4-methylcyclohexyl)methyl]-8-[2-(1-methylethyl)piperidin-1-yl] -7H-purine-2-carboxylic acid] gave an IC50 of 3.31 nM.
In the case of `C[C@@H](Nc1nc(-c2n[nH]c(=O)o2)nc2nc(N3CCOC[C@H]3c3ccccc3)n(C[C@H]3CC[C@H](C)CC3)c12)C1CCC1` [Example 11.55, 5-(6-{[(1R)-1-cyclobutylethyl]amino}-7-[(trans-4-methylcyclohexyl)methyl]-8-[(3R)-3-phenylmorpholin-4-yl]-7H-purin-2-yl)-1,3,4-oxadiazol-2(3H)-one], the IC50 is reported as 2.14 nM.
For `C[C@@H](Nc1nc(C(=O)O)nc2nc(N3CCCCC3Cc3ccc(F)cc3)n(C[C@H]3CC[C@H](C)CC3)c12)C1CCC1` (stereo partly drawn) [Example 11.56, 6-{[(1R)-1-cyclobutylethyl]amino}-8-[2-(4-fluorobenzyl)piperidin-1-yl]-7-[(trans-4-methylcyclohexyl)methyl]-7H-purine-2-carboxylic acid], the IC50 was 11.6 nM.
Work on `C[C@@H](Nc1nc(-c2noc(=O)[nH]2)nc2nc(-n3ccnc3)n(C[C@H]3CC[C@H](C)CC3)c12)C1CCC1` [Example 11.57, 3-(6-{[(1R)-1-cyclobutylethyl]amino}-8-(1H-imidazol-1-yl)-7-[(trans-4-methylcyclohexyl)methyl]-7H-purin-2-yl)-1,2,4-oxadiazol-5(4H)-one] yielded an IC50 of 16.4 nM.
`C[C@@H](Nc1nc(-c2noc(=O)[nH]2)nc2nc(N3CCC[C@H]4CCCC[C@@H]43)n(C[C@H]3CC[C@H](C)CC3)c12)C1CCC1` [Example 11.60, 3-(6-{[(1R)-1-cyclobutylethyl]amino}-7-[(trans-4-methylcyclohexyl)methyl]-8-[(4aR,8aS)-octahydroquinolin-1(2H)-yl]-7H-purin-2-yl)-1,2,4-oxadiazol-5(4H)-one] gave an IC50 of 10.5 nM.
`C[C@@H](Nc1nc(-c2noc(=O)[nH]2)nc2nc(N3CCC[C@@H]4CCCC[C@H]43)n(C[C@H]3CC[C@H](C)CC3)c12)C1CCC1` [Example 11.61, 3-(6-{[(1R)-1-cyclobutylethyl]amino}-7-[(trans-4-methylcyclohexyl)methyl]-8-[(4aS,8aR)-octahydroquinolin-1(2H)-yl]-7H-purin-2-yl)-1,2,4-oxadiazol-5(4H)-one] was tested, and the IC50 was 5.13 nM.
Compound `C[C@H]1CC[C@H](Cn2c(N3CCOC[C@H]3c3ccccc3)nc3nc(-c4noc(=O)[nH]4)nc(N4CCCC4C4CCC4)c32)CC1` (stereo partly drawn) [Example 11.62, 3-{6-(2-cyclobutylpyrrolidin-1-yl)-7-[(trans-4-methylcyclohexyl)methyl]-8-[(3R)-3-phenylmorpholin-4-yl]-7H -purin-2-yl}-1,2,4-oxadiazol-5(4H)-one] has an IC50 of 7.84 nM.
In the case of `Cc1nonc1CN(C)c1nc2nc(-c3noc(=O)[nH]3)nc(N[C@H](C)C3CCC3)c2n1C[C@H]1CC[C@H](C)CC1` [Example 11.63, 3-(6-{[(1R)-1-cyclobutylethyl]amino}-7-[(trans-4-methylcyclohexyl)methyl]-8-{methyl[(4-methyl-1,2,5-oxadiazol-3-yl)methyl]amino}-7H-purin-2-yl)-1,2,4-oxadiazol-5(4H)-one], the IC50 is reported as 3.71 nM.
`C[C@@H](Nc1nc(-c2noc(=O)[nH]2)nc2nc(N(C)Cc3ccon3)n(C[C@H]3CC[C@H](C)CC3)c12)C1CCC1` [Example 11.64, 3-(6-{[(1R)-1-cyclobutylethyl]amino}-8-[(isoxazol-3-ylmethyl)(methyl)amino]-7-[(trans-4-methylcyclohexyl)methyl]-7H-purin-2-yl)-1,2,4-oxadiazol-5(4H)-one] was tested, and the IC50 was 5.77 nM.
`C[C@@H]1COCCN1c1nc2nc(-c3noc(=O)[nH]3)nc(N[C@H](C)C3CCC3)c2n1C[C@H]1CC[C@H](C)CC1` [Example 11.65, 3-(6-{[(1R)-1-cyclobutylethyl]amino}-7-[(trans-4-methylcyclohexyl)methyl]-8-[(3R)-3-methylmorpholin-4-yl]-7H-purin-2-yl)-1,2,4-oxadiazol-5(4H)-one] showed an IC50 of 1.45 nM.
Compound `C[C@@H](Nc1nc(-c2noc(=O)[nH]2)nc2nc(N3CCOC[C@@H]3C)n(C[C@H]3CC[C@H](C)CC3)c12)C1CCC1` [Example 11.66, 3-(6-{[(1R)-1-cyclobutylethyl]amino}-7-[(trans-4-methylcyclohexyl)methyl]-8-[(3S)-3-methylmorpholin-4-yl]-7H-purin-2-yl)-1,2,4-oxadiazol-5(4H)-one] has an IC50 of 5.8 nM.
